Assay [1] concerns PQS. The experiment in a line: Assay for PQS Inhibition (6 Hour Incubation). It counts as cell-based, P. aeruginosa PA14 wild-type strain. The procedure:
(§1) A concentration range with 7 test concentrations is chosen for each test compound. Typically concentration ranges for the PQS and HHQ assays are from 0.03 to 31.6 μM. Compounds are prepared in solvent, usually DMSO, at either 200 or 500 times the final test concentration.
(§2) P. aeruginosa PA14 wild-type strain is inoculated into 5 ml LB broth in a 15 ml sterile glass culture tube and incubated overnight at 37° C. under shaking (˜240 rpm). After overnight incubation, the bacterial culture is diluted in fresh LB broth to an OD600 nm=0.04, and 5 mL aliquots of the diluted bacterial culture are distributed into 15-mL glass tubes. 10 μL of test compound at 500 times the final test concentration or 25 μL of test compound at 200 times the final test concentration or solvent alone is added to each of the bacterial suspension tubes, and the tubes are incubated at 37° C. under shaking (300 rpm) for 6 hours. At the end of the incubation period, a 0.5 mL aliquot of bacterial suspension is transferred from each 15 mL glass tube, after shaking, to a 2 mL polypropylene vial. 0.5 mL of methanol-containing D4-PQS (deuterated-PQS), D4-HHQ (deuterated-HHQ) and 2% acetic acid are added to each 2 mL vial and each vial is vigorously shaken. The vials are then centrifuged for 5 minutes at 12,000 g, and 200 μL of supernatant from each vial is transferred to a glass vial (vials crimp 0.2 mL), and the sealed vials are kept at 4° C. until LC-MS/MS analysis is performed. HAQs quantification is carried out analyzing samples in discrete batches together with spiked standards and blank samples. Calibration curves are constructed from HAQs standards, and respective deuterated forms are used as Internal Standards (IS), to calculate the concentration of analytes in the sample and improve the precision of the assay. The back-calculated concentrations of the calibration standards from the calibration curve shall be within ±20% of the nominal values, the range of the analytical method is determined, and the lower and upper limit of quantification specified.
(§3) Liquid chromatography separations are performed using Agilent HP1100 system (Agilent Technologies) coupled with a CTC PAL Autosampler (CTC Analytics AG). Chromatographic retention is obtained using a monolithic column (Chromolith® RP-18, 50×4.6 mm). The solvent system consists of water containing 0.1% (v/v) formic acid (A) and acetonitrile containing 0.1% (v/v) formic acid (B). The gradient elution profile is chosen as follows: 0 min: 70% A (1500 μL/min), 0.3 min: 70% A (1500 μL/min), 1.3 min: 5% A (2500 μL/min), 1.6 min: 5% A (2500 μL/min).
(§4) The MS/MS analysis is performed with a API4000 series mass spectrometer (AB Sciex™) operating in Multiple Reaction Monitoring (MRM) mode and equipped with a TIS ion source. The specific ions monitored are PQS (m/z 260→m/z 175), D4-PQS (m/z 264→m/z 179), HHQ (m/z 244→m/z 159) and D4-HHQ (m/z 248→m/z 163). PQS and HHQ in presence of different test compound concentrations are expressed as percentage of inhibition of the basal level in control samples.

Assay [2] deals with HHQ. The experiment in a line: Assay for HHQ Inhibition (6 Hour Incubation). Type of assay: cell-based, P. aeruginosa PA14 wild-type strain. The procedure: as §1, §2, §3, §4
Where [3] appears, read: Pseudomonas aeruginosa, PA14, 6 h, read-out: PQS (6 hr) IC50 (μM).
Setting [4] is: Pseudomonas aeruginosa, PA14, 6 h, read-out: HHQ (6 hr) IC50 (μM).

Read-outs that look alike come from different tables or passages of the source.

What is called IC50 is the concentration that inhibits the measured activity by half. Take “2-((5-chloro-1H-benzo[d]imidazol-2-yl)thio)-N-(4-(pyrimidin-5-yloxy)phenyl)acetamide [Compound 79]”: the IC50 in assay [1] (P. aeruginosa PA14 culture, 6 hours incubation, PQS by LC-MS/MS, read-out: PQS (6 hr) IC50) was less than 1 µM; in assay [2] (P. aeruginosa PA14 culture, 6 hours incubation, HHQ by LC-MS/MS, read-out: HHQ (6 hr) IC50) it was less than 1 µM.
Turning to `N#Cc1ccc(NC(=O)CSc2nc3cc(C(F)(F)F)ccc3[nH]2)cc1` [Compound 56], the IC50 in assay [1] (setting [3]) and in assay [2] (setting [4]) was less than 1 µM in each case.
In the case of `N#Cc1ccc(NC(=O)CSc2nc3cc(F)ccc3[nH]2)cc1` [Compound 57], the IC50 in assay [1] (setting [3]) and in assay [2] (setting [4]) was 1 to 5 µM throughout.
On to `O=C(CNc1nc2cc(Cl)ccc2s1)Nc1ccc(Oc2cccnc2)cc1` [Compound 71, 2-((5-chlorobenzo[d]thiazol-2-yl)amino)-N-(4-(pyridin-3-yloxy)phenyl)acetamide], for which the IC50 in assay [1] (setting [3]) and in assay [2] (setting [4]) was 1 to 5 µM throughout.
Turning to `O=C(CNc1nc2cc(Cl)ccc2o1)Nc1ccc(Oc2cccnc2)cc1` [Compound 74, 2-((5-chlorobenzo[d]oxazol-2-yl)amino)-N-(4-(pyridin-3-yloxy)phenyl)acetamide], the IC50 is 1 to 5 µM in assay [1] (setting [3]) and less than 1 µM in assay [2] (setting [4]).
Taken in the same sequence, the figures for `O=C(CSc1nc2cc(Cl)ccc2[nH]1)Nc1ccc(Oc2cccnc2)cc1` [Compound 77, 2-((5-chloro-1H-benzo[d]imidazol-2-yl)thio)-N-(4-(pyridin-3-yloxy)phenyl)acetamide] were less than 1 µM and less than 1 µM.
Taken in the same sequence, the figures for `O=C(CSc1nc2cc(Cl)ccc2[nH]1)Nc1ccc(Oc2cccnc2Cl)cc1` [Compound 83, 2-((5-chloro-1H-benzo[d]imidazol-2-yl)thio)-N-(4-((2-chloropyridin-3-yl)oxy)phenyl)acetamide] were less than 1 µM and less than 1 µM.
Taken in the same sequence, the figures for `O=C(CSc1nc2cc(Cl)ccc2[nH]1)Nc1ccc(Oc2ccc(Cl)nc2)cc1` [Compound 84, 2-((5-chloro-1H-benzo[d]imidazol-2-yl)thio)-N-(4-((6-chloropyridin-3-yl)oxy)phenyl)acetamide] were less than 1 µM and less than 1 µM.
Consider `O=C(CCc1nc2cc(Cl)ccc2s1)Nc1ccc(Oc2cccnc2)cc1` [Compound 85, 3-(5-chlorobenzo[d]thiazol-2-yl)-N-(4-(pyridin-3-yloxy)phenyl)propanamide], for which the 50% inhibitory concentration (IC50) in assay [1] (setting [3]) and in assay [2] (setting [4]) was 1 to 5 µM each time.
As to `O=C(CCc1nc2ccc(Cl)cc2s1)Nc1ccc(Oc2cccnc2)cc1` [Compound 86, 3-(6-Chlorobenzo[d]thiazol-2-yl)-N-(4-(pyridin-3-yloxy)phenyl)propanamide], the IC50 in assay [1] (setting [3]) and in assay [2] (setting [4]) was greater than 10 µM throughout.
With `N#Cc1ccc(NC(=O)CSc2nc3ccc(C#N)cc3[nH]2)cc1` [Compound 93], the values for the IC50 in assay [1] (setting [3]) and in assay [2] (setting [4]) were 1 to 5 µM and less than 1 µM, respectively.
Taken in the same sequence, the figures for `N#Cc1ccc2nc(SCC(=O)Nc3ccc(Cl)cc3)[nH]c2c1` [Compound 94] were 1 to 5 µM and 1 to 5 µM.
Taken in the same sequence, the figures for `N#Cc1ccc(NC(=O)CSc2nc3cc(Br)ccc3[nH]2)cc1` [Compound 96] were less than 1 µM and less than 1 µM.
Taken in the same sequence, the figures for `N#Cc1ccc(NC(=O)CSc2nc3cc(OC(F)F)ccc3[nH]2)cc1` [Compound 104] were 1 to 5 µM and 1 to 5 µM.
For `O=C(CSc1nc2cc(C(F)(F)F)ccc2[nH]1)Nc1ccc(Cl)cc1` [Compound 105], the IC50 in assay [1] (setting [3]) and in assay [2] (setting [4]) was less than 1 µM throughout.
Take `O=C(CSc1nc2cc(F)ccc2[nH]1)Nc1ccc(Cl)cc1` [Compound 110]: the IC50 in assay [1] (setting [3]) and in assay [2] (setting [4]) was 1 to 5 µM each time.
`O=C(CSc1nc2ccc(-n3cccn3)cc2[nH]1)Nc1ccc(Cl)cc1` [Compound 116]: the half-maximal inhibitory concentration (IC50) in assay [1] (setting [3]) and in assay [2] (setting [4]) was greater than 10 µM each time.
Take `N#Cc1ccc(NC(=O)CSc2nc3cc(Cl)ccc3[nH]2)cc1` [Compound 125]: the concentration for half-maximal inhibition (IC50) in assay [1] (setting [3]) and in assay [2] (setting [4]) was less than 1 µM in each case.
For `O=C(CSc1nc2cc(F)c(F)cc2[nH]1)Nc1ccc(Br)cc1` [Compound 126], in assay [1] (setting [3]), the IC50 lay in the range of 1 to 5 µM.
Consider `O=C(CSc1nc2ccc(Cl)cc2[nH]1)Nc1ccc(Cl)cc1` [Compound 137], for which the IC50 in assay [1] (setting [3]) and in assay [2] (setting [4]) was less than 1 µM in each case.
As for `COc1ccc(NC(=O)CSc2nc3ccc(Cl)cc3[nH]2)cc1` [Compound 140], in assay [1] (setting [3]), the IC50 was in the range of 5 to 10 µM.
In the case of `N#Cc1ccc(NC(=O)CSc2nc3cc(Cl)ccc3[nH]2)cc1Cl` [Compound 142], the half-inhibitory concentration (IC50) in assay [1] (setting [3]) and in assay [2] (setting [4]) was less than 1 µM each time.
For `O=C(CSc1nc2ccc(Br)cc2[nH]1)Nc1ccc(Cl)cc1` [Compound 145], the IC50 in assay [1] (setting [3]) and in assay [2] (setting [4]) was less than 1 µM each time.
As to `N#Cc1ccc(NC(=O)CSc2nc3cc(Br)ccc3o2)cc1` [Compound 147], the IC50 in assay [1] (setting [3]) and in assay [2] (setting [4]) was less than 1 µM each time.
Regarding `O=C(CCc1nc2ccc(Cl)cc2[nH]1)Nc1ccc(Oc2cccnc2)cc1` [Compound 152, 3-(5-chloro-1H-benzo[d]imidazol-2-yl)-N-(4-(pyridin-3-yloxy)phenyl)propanamide], the IC50 in assay [1] (setting [3]) and in assay [2] (setting [4]) was less than 1 µM throughout.

The record behind these values is patent US9643933B2, “Compounds useful as antibiotic tolerance inhibitors” (priority 2013, dated 2017).
